# Experiments:
# [1] = In vivo biodistribution of ^225Ac complexes of macropa and DOTA and of ^225Ac(NO3)3 in mice; set-up: species or system C57BL/6 mice
# Method: In Vivo Biodistribution of ^225Ac Complexes of Macropa and DOTA. All experiments were approved by the Institutional Animal Care Committee (IACC) of the University of British Columbia and were performed in accordance with the Canadian Council on Animal Care Guidelines. A total of 9 female C57BL/6 mice (6-8 weeks old, 20-25 g) were used for the biodistribution study of each radiometal complex, n=3 for each time point.
# Macropa (100 μL of a 1 mg/mL solution in NH4OAc) was diluted with 387 μL of NH4OAc (1 M, pH 7), and an aliquot (203 μL) of ^225Ac(NO3)3 (˜157 kBq) was then added; the pH of this solution was adjusted to 6.5-7 by the addition of 1 M NaOH (210 μL, trace metal grade). After 5 min at ambient temperature, the reaction solution was analyzed by TLC (0.4 M pH 4 sodium citrate as the eluent), which confirmed >95% radiochemical yield. The reaction was allowed to proceed overnight, and the radiochemical yield was again confirmed to be >95% the following morning. At this time, mice were anesthetized by 2% isoflurane, and approximately 100 μL (10-15 kBq) of the [^225Ac(macropa)]^+ complex were injected into the tail vein of each mouse. After injection, mice were allowed to recover and roam freely in their cages, and were euthanized by CO2 inhalation at 15 min, 1 h, or 5 h (n=3 at each time point) post-injection. Blood was collected by cardiac puncture and placed into an appropriate test tube for scintillation counting. Tissues collected included heart, liver, kidneys, lungs, small intestine, large intestine, brain, bladder, spleen, stomach, pancreas, bone, thyroid, tail, urine, and feces. Tissues were weighed and then counted with a calibrated gamma counter (Packard, Cobra II model 5002) using three energy windows: 60-120 keV (window A), 180-260 keV (window B), and 400-480 keV (window C). Counting was performed both immediately after sacrifice and after 7 days; counts were decay corrected from the time of injection and then converted to the percentage of injected dose (% ID) per gram of tissue (% ID/g). […]
# The biodistribution studies of [^225Ac(DOTA)]^− and ^225Ac(NO3)3 were carried out as described above for [^225Ac(macropa)]^+, with the following modifications. [^225Ac(DOTA)^− was prepared by adding ^225Ac(NO3)3 (338 μL, 1.1 MBq) to a solution of DOTA (100 μg, 20 mg/mL in H2O) in NH4OAc (467 μL, 0.15 M, pH 7). The pH of the solution was adjusted to 7 using NH4OAc (150 μL, 1 M, pH 7) and the solution was heated at 85° C. for 45 min. RCY>99% was confirmed by TLC as described above. [^225Ac(DOTA)]^− was diluted with saline to a final concentration of 0.05 MBq/100 μL, and 100 μL were injected into each mouse. ^225Ac(NO3)3 (˜58 μL, 0.4 MBq) was diluted and injected in the same manner as [^225Ac(DOTA)]^−. One mouse that was to be euthanized at the 5 h time point in the [^225Ac(DOTA)]^− study died shortly after injection. In the same manner, one mouse that was to be euthanized at the 1 h time point in the ^225Ac(NO3)3 study died.
# The in vivo stability [^225Ac(macropa)]^+ was examined by comparing its biodistribution to those of ^225Ac(NO3)3 and [^225Ac(DOTA)]^−. C57BL/6 mice were injected via tail vein with 10-50 kBq of each radiometal complex and were sacrificed after 15 min, 1 h, or 5 h. The amount of ^225Ac retained in each organ was quantified by gamma counting and reported as the percent of injected dose per gram of tissue (% ID/g). The results of these studies are compiled in Tables 1-3. Inadequate stability of an ^225Ac complex leading to the loss of radioisotope in vivo is manifested by the accumulation of ^225Ac in the liver, spleen, and bone of mice.^[11,12,32] […] The biodistribution profile of [^225Ac(macropa)]^+ (FIG. 3B) differs markedly from that of ^225Ac(NO3)3. […] Its biodistribution profile was similar to that of [^225Ac(DOTA)]^− (FIG. 3C), which has been previously shown to retain ^225Ac in vivo.^[7]
# [2] = Kinetic inertness of La^3+ and Lu^3+ complexes of macropa: transchelation challenge with EDTA/DTPA; type: physicochemical; details: in the presence of 1000 equiv of DTPA, pH 7.4, monitored 21 days by UV
# Method: Kinetic Inertness of La^3+ and Lu^3+ Complexes of Macropa: Transchelation Challenge. A stock solution of ethylenediaminetetraacetic acid (EDTA, 100 mM) was made in MOPS buffer (prepared as described above) by adjusting the pH of the initial suspension to 6.6 using aqueous NMe4OH.
# The preformed La^3+ and Lu^3+ complexes of macropa were challenged with EDTA.
# The complex formed in situ between La^3+ and macropa was more rigorously challenged with excess DTPA. A solution containing 500 μM of complex, prepared using the LaCl3 and macropa stock solutions described above, was left to equilibrate for 5 min.
# Before assessing its Ac-chelation properties, complex formation was evaluated in situ between macropa and cold La^3+ and Lu^3+ ions.
# [3] = 1 h after i.v. injection, energy window C (400-480 keV)
# [4] = 5 h after i.v. injection, energy window A (60-120 keV)
compound,measurement,setting,value
"O=C([O-])CN1CCN(CC(=O)[O-])CCN(CC(=O)[O-])CCN(CC(=O)[O-])CC1.[225Ac+3] [[^225Ac(DOTA)]^−, reference compound]",Organ distribution: brain,[1]; [3],0.0380 % ID/g
same,Organ distribution: blood,[1]; [4],0.0140 % ID/g
same,Organ distribution: lungs,[1]; [4],0.0390 % ID/g
O=C([O-])c1cccc(CN2CCOCCOCCN(Cc3cccc(C(=O)O)n3)CCOCCOCC2)n1.[La+3] [La^3+ complex],time complex remained intact,[2],up to 21 days
"O=[N+]([O-])[O-].O=[N+]([O-])[O-].O=[N+]([O-])[O-].[225Ac] [^225Ac(NO3)3, reference compound]",Organ distribution: feces,"[1]; 15 min after i.v. injection, energy window A (60-120 keV)",0.240 % ID/g
same,Organ distribution: feces,"[1]; 1 h after i.v. injection, energy window B (180-260 keV)",0.3300 % ID/g
same,Organ distribution: thyroids,[1]; [3],0.0000 % ID/g
same,Organ distribution: brain,"[1]; 5 h after i.v. injection, energy window B (180-260 keV)",0.0290 % ID/g
same,Organ distribution: brain,"[1]; 5 h after i.v. injection, energy window C (400-480 keV)",0.0430 % ID/g
same,blood clearance and excretion (in words),"[1]; i.v. injection, up to 5 h",slow blood clearance and excretion
same,organ accumulation (in words),"[1]; i.v. injection, up to 5 h",large accumulation in the liver and spleen
